pIC50: −log10 of the molar value.
What was measured:
[1] = organism: Rattus norvegicus; assay: In vitro inhibition of ADP-induced platelet aggregation in rat platelet rich plasma; assay type: functional
[2] = organism: Canis familiaris; assay: In vitro inhibition of ADP-induced platelet aggregation in dog platelet rich plasma; assay type: functional; conditions: Canis lupus familiaris
[3] = In vitro inhibition of ADP-induced platelet aggregation in human platelet rich plasma; assay type: functional, cell-free
[4] = In vitro inhibition of ADP-induced platelet aggregation in monkey platelet rich plasma; assay type: functional; conditions: Cercopithecidae
[5] = Total body clearance of drug from the plasma after intravenous administration at 3.2 mg/kg in rat; assay type: ADME, organism-based; set-up: dose 3.2 mg/kg, route intravenous; conditions: read-out: CLtot
[6] = Elimination half-life after intravenous administration at a dose of 3.2 mg/kg in rat (n=3); assay type: ADME, organism-based; set-up: dose 3.2 mg/kg, route intravenous; conditions: in vivo
[7] = Total body clearance of drug from the plasma after intravenous administration at 0.032 mg/kg in dog; assay type: ADME, organism-based, Canis lupus familiaris; set-up: dose 0.032 mg/kg, route intravenous; conditions: read-out: CLtot
[8] = Percent oral bioavailability of the drug after intravenous administration at 0.032 mg/kg in dog; assay type: ADME, organism-based, Canis lupus familiaris; conditions: in vivo, read-out: Ba
[9] = Maximum (peak) plasma drug concentration after peroral administration at a dose of 0.032 mg/kg in dog; assay type: ADME, organism-based, Canis lupus familiaris; set-up: dose 0.032 mg/kg, route oral; conditions: po
[10] = Maximum (peak) plasma drug concentration after peroral administration at a dose of 3.2 mg/kg in rat (n=3); assay type: ADME, organism-based; set-up: dose 3.2 mg/kg, route oral; conditions: po
[11] = Percent oral bioavailability after intravenous administration at 3.2 mg/kg in rat; assay type: ADME, organism-based; conditions: in vivo, read-out: Ba
[12] = Elimination half-life after intravenous administration at a dose of 0.032 mg/kg in dog; assay type: ADME, organism-based, Canis lupus familiaris; set-up: dose 0.032 mg/kg, route intravenous; conditions: in vivo
[13] = Area Under Plasma concentration-time curve after peroral administration at a dose of 0.032 mg/kg in dog; assay type: ADME, organism-based, Canis lupus familiaris; set-up: dose 0.032 mg/kg, route oral; conditions: po
[14] = Area under plasma concentration-time curve after peroral administration at a dose of 3.2 mg/kg in rat (n=3); assay type: ADME, organism-based; set-up: dose 3.2 mg/kg, route oral; conditions: po

Row | SMILES | pIC50 [1] | pIC50 [3] | also measured
1 | O=C(O)COc1cccc2c1CCC[C@@H]2OCc1nc(-c2ccccc2)c(-c2ccccc2)o1 | – | 5.85 | –
2 | O=C(O)COc1cccc2c1CCC[C@@H]2N1CCC[C@@H]1c1nc(-c2ccccc2)c(-c2ccccc2)o1 | < 5.00 | 6.06 | –
3 | O=C(O)COc1cccc2c1CCC[C@H]2NCc1nc(-c2ccccc2)c(-c2ccccc2)o1 | 5.30 | 6.72 | –
4 | O=C(O)COc1cccc2c1CCCC2CCc1nc(-c2ccccc2)c(-c2ccccc2)o1 (configuration not stated) | < 5.00 | 6.00 | –
5 | O=C(O)COc1cccc2c1CCC[C@@H]2NCc1nc(-c2ccccc2)c(-c2ccccc2)o1 | – | 5.82 | –
6 | O=C(O)COc1cccc2c1CCC[C@H]2N1CCC[C@H]1c1nc(-c2ccccc2)c(-c2ccccc2)o1 | < 5.00 | 6.19 | –
7 | CCC/C(CC1CCc2c(cccc2OCC(=O)O)C1)=N\OC(c1ccccc1)c1ccccc1 (configuration not stated) [AP-227] | – | 6.82 | –

Stronger by pIC50 [3], values ahead:

Row | pIC50 [1] | pIC50 [3] | SMILES | also measured
8 | 5.92 | 7.22 | O=C(O)COc1cccc(C[C@@H]2CCCC=C2c2nc(-c3ccccc3)c(-c3ccccc3)o2)c1 | pIC50 [2]: 5.89
9 | 6.20 | 7.72 | O=C([O-])COc1cccc2c1CCC[C@H]2N1CCC[C@@H]1c1nc(-c2ccccc2)c(-c2ccccc2)o1.[Na+] | pIC50 [2]: 6.11; pIC50 [4]: 7.23; clearance [5]: 89.2 mL/min/kg; half-life [6]: 0.21 h; clearance [7]: 1 mL/min/kg; bioavailability [8]: 66%; Cmax [9]: 61.2 ng/mL; Cmax [10]: 187 ng/mL; bioavailability [11]: 31%; half-life [12]: 2.25 h; AUC [13]: 327 ng·h/mL; AUC [14]: 172 ng·h/mL
10 | – | 6.85 | O=C(O)COc1cccc2c1CCC[C@H]2OCc1nc(-c2ccccc2)c(-c2ccccc2)o1 | –
11 | 5.66 | 7.20 | O=C(O)COc1cccc2c1CCC[C@@H]2N1CCC[C@H]1c1nc(-c2ccccc2)c(-c2ccccc2)o1 | –
12 | – | 8.60 | CC#CCC(C)[C@H](O)/C=C/[C@@H]1[C@H]2C/C(=C/CCCC(=O)O)C[C@H]2C[C@H]1O (some centres not stated) [ILOPROST] | –
